{"source": "patent US20040152739A1", "about": "“Acyclic pyrazole compounds for the inhibition of mitogen activated protein kinase-activated protein kinase-2” (priority 2002, published 2004)", "note": "Counter-ions that a name gives are not always drawn."}
{"target": "MK-2 (Homo sapiens, UniProt P49137)", "sequence (P49137 whole entry, species assumed)": "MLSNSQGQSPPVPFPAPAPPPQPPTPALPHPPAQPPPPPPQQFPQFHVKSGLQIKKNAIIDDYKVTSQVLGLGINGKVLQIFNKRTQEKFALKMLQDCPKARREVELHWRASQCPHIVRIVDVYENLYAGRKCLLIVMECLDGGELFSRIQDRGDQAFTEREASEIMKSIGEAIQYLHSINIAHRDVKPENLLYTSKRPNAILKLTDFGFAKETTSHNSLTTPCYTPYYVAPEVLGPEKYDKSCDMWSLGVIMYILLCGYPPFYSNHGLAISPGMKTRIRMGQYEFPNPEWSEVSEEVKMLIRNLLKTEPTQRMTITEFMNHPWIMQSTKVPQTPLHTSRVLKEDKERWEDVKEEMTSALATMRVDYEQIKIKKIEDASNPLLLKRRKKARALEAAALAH", "assay": "Determination of MK-2 IC50 (anion exchange resin capture assay, HSP-peptide phosphorylation)", "assay_type": "biochemical", "settings": "MK-2 Avg. IC50", "units": {"IC50": "µM"}}
{"smiles": "CCOC(=O)c1cc(-c2ccnc(-c3ccc(O[Si](C)(C)C(C)(C)C)cc3)c2)nn1CCN", "note": "[Example 136, ethyl 1-(2-aminoethyl)-3-[2-(4-{[tert-butyl(dimethyl)silyl]oxy}phenyl)pyridin-4-yl]-1H-pyrazole-5-carboxylate dihydrochloride]", "IC50": 28.3}
{"target": "MK-2 (Homo sapiens, UniProt P49137)", "assay": "Determination of MK-2 IC50 (anion exchange resin capture assay, HSP-peptide phosphorylation)", "assay_type": "biochemical", "settings": "read-out: MK-2 Avg. IC50", "units": {"IC50": "µM"}}
{"smiles": "CCOC(=O)c1cc(-c2ccnc(-c3cccc(O)c3)c2)nn1CCN", "note": "[Example 108, ethyl 1-(2-aminoethyl)-3-[2-(3-hydroxyphenyl)pyridin-4-yl]-1H-pyrazole-5-carboxylate dihydrochloride]", "IC50": 4.98}
{"smiles": "CCOC(=O)c1cc(-c2ccnc(-c3cccc(OC)c3)c2)nn1CCN", "note": "[Example 110, ethyl 1-(2-aminoethyl)-3-[2-(3-methoxyphenyl)pyridin-4-yl]-1H-pyrazole-5-carboxylate dihydrochloride]", "IC50": 5.23}
{"smiles": "O=C1NCCn2nc(-c3ccnc(-c4ccccn4)c3)cc21", "note": "[Example 111, 2-(2,2′-bipyridin-4-yl)-6,7-dihydropyrazolo[1,5-a]pyrazin-4(5H)-one]", "IC50": 5.34}
{"smiles": "CN(C)Cc1ccc(-c2cc(-c3cc4n(n3)CCNC4=O)ccn2)cc1", "note": "[Example 112, 2-(2-{4-[(dimethylamino)methyl]phenyl}pyridin-4-yl)-6,7-dihydropyrazolo[1,5-a]pyrazin-4(5H)-one trifluoroacetate]", "IC50": 5.35}
{"smiles": "O=C1NCCCn2nc(-c3ccnc(-n4ccnc4)c3)cc21", "note": "[Example 113, 2-[2-(1H-imidazol-1-yl)pyridin-4-yl]-5,6,7,8-tetrahydro-4H-pyrazolo[1,5-a][1,4]diazepin-4-one hydrochloride]", "IC50": 5.66}
{"smiles": "O=C1NCCn2nc(-c3ccnc(-c4cccc(CNCCO)c4)c3)cc21", "note": "[Example 114, 2-[2-(3-{[(2-hydroxyethyl)amino]methyl}phenyl)pyridin-4-yl]-6,7-dihydropyrazolo[1,5-a]pyrazin-4(5H)-one]", "IC50": 5.78}
{"smiles": "CC(C)NCc1cccc(-c2cc(-c3cc4n(n3)CCNC4=O)ccn2)c1", "note": "[Example 115, 2-(2-{3-[(isopropylamino)methyl]phenyl}pyridin-4-yl)-6,7-dihydropyrazolo[1,5-a]pyrazin-4(5H)-one]", "IC50": 6.27}
{"smiles": "O=C1NCCn2nc(-c3ccnc(-c4cccc(OCCN5CCOCC5)c4)c3)cc21", "note": "[Example 116, 2-{2-[3-(2-morpholin-4-ylethoxy)phenyl]pyridin-4-yl}-6,7-dihydropyrazolo[1,5-a]pyrazin-4(5H)-one]", "IC50": 6.73}
{"smiles": "O=C1NCCn2nc(-c3ccnc(-n4cnc(-c5ccccc5)c4)c3)cc21", "note": "[Example 117, 2-[2-(4-phenyl-1H-imidazol-1-yl)pyridin-4-yl]-6,7-dihydropyrazolo[1,5-a]pyrazin-4(5H)-one]", "IC50": 7.04}
{"smiles": "NCCn1nc(-c2ccnc(-c3ccc(CO)cc3)c2)cc1C(=O)NO", "note": "[Example 118, 1-(2-aminoethy)-N-hydroxy-3-{2-[4-(hydroxymethyl)phenyl]pyridin-4-yl}-1H-pyrazole-5-carboxamide trifluoroacetate]", "IC50": 7.91}
{"smiles": "NCCCn1nc(-c2ccc(O)cc2)cc1C(=O)O", "note": "[Example 119, 1-(3-aminopropyl)-3-(4-hydroxyphenyl)-1H-pyrazole-5-carboxylic acid dihydrochloride]", "IC50": 8.11}
{"smiles": "O=C1NCCn2nc(-c3ccnc(-c4nc5ccccc5[nH]4)c3)cc21", "note": "[Example 120, 2-[2-(1H-benzimidazol-2-yl)pyndin-4-yl]-6,7-dihydropyrazolo[1,5-a]pyrazin-4(5H)-one]", "IC50": 8.92}
{"smiles": "O=C1NCCCn2nc(-c3ccnc(-n4ccnn4)c3)cc21", "note": "[Example 121, 2-[2-(1H-1,2,3-triazol-1-yl)pyridin-4-yl]-5,6,7,8-tetrahydro-4H-pyrazolo[1,5-a][1,4]diazepin-4-one hydrochloride]", "IC50": 9.05}
{"smiles": "O=C1NCCCn2nc(-c3ccncc3)cc21", "note": "[Example 122, 2-pyridin-4-yl-5,6,7,8-tetrahydro-4H-pyrazolo[1,5-a][1,4]diazepin-4-one]", "IC50": 10.1}
{"smiles": "O=C1NCCCn2nc(-c3ccnc(-n4cccc4)c3)cc21", "note": "[Example 123, 2-[2-(1H-pyrrol-1-yl)pyridin-4-yl]-5,6,7,8-tetrahydro-4H-pyrazolo[1,5-a][1,4]diazepin-4-one trifluoroacetate]", "IC50": 10.6}
{"smiles": "NCCCn1nc(-c2ccnc(-c3cnc4ccccc4c3)c2)cc1C(N)=O", "note": "[Example 124, 1-(3-aminopropyl)-3-(2-quinolin-3-ylpyridin-4-yl)-1H-pyrazole-5-carboxamide dihydrochloride]", "IC50": 10.7}
{"smiles": "O=C1NCCn2nc(-c3ccnc(-c4cccc(CN5CCOCC5)c4)c3)cc21", "note": "[Example 125, 2-{2-[3-(morpholin-4-ylmethyl)phenyl]pyridin-4-yl]-6,7-dihydropyrazolo[1,5-a]pyrazin-4(5H)-one]", "IC50": 11.4}
{"smiles": "N#Cc1cc(-c2cc3n(n2)CCNC3=O)ccn1", "note": "[Example 126, 4-(4-oxo-4,5,6,7-tetrahydropyrazolo[1,5-a]pyrazin-2-yl)pyridine-2-carbonitrile]", "IC50": 13.8}
{"smiles": "CCCn1nc(-c2ccnc(-n3ccnc3)c2)cc1C(=O)O", "note": "[Example 127, 3-[2-(1H-imidazol-1-yl)pyridin-4-yl]-1-propyl-1H-pyrazole-5-carboxylic acid]", "IC50": 14.3}
{"smiles": "CN(C)Cc1cccc(-c2cc(-c3cc4n(n3)CCNC4=O)ccn2)c1", "note": "[Example 128, 2-(2-{3-[(dimethylamino)methyl]phenyl}pyridin-4-yl)-6,7-dihydropyrazolo[1,5-a]pyrazin-4(5H)-one trifluoroacetate]", "IC50": 15.4}
{"smiles": "O=C1NCCn2nc(-c3ccnc(-c4cccc(OCc5ccccc5)c4)c3)cc21", "note": "[Example 129, 2-{2-[3-(benzyloxy)phenyl]pyridin-4-yl}-6,7-dihydropyrazolo[1,5-a]pyrazin-4(5H)-one]", "IC50": 15.5}
{"smiles": "O=C1NCCCn2nc(-c3ccnc(-n4cccn4)c3)cc21", "note": "[Example 130, 2-[2-(1H-pyrazol-1-yl)pyridin-4-yl]-5,6,7,8-tetrahydro-4H-pyrazolo[1,5-a][1,4]diazepin-4-one hydrochloride]", "IC50": 16.2}
{"smiles": "CCOC(=O)c1cc(-c2ccncc2)nn1CCN", "note": "[Example 133, ethyl 1-(2-aminoethyl)-3-pyridin-4-yl-1H-pyrazole-5-carboxylate dihydrochloride]", "IC50": 24.5}
{"smiles": "Cc1ccc(C(C)CCNCCn2nc(-c3ccncc3)cc2C(=O)O)o1", "note": "(stereo not shown) [Example 134, 1-(2-{[3-(5-methyl-2-furyl)butyl]amino}ethyl)-3-pyridin-4-yl-1H-pyrazole-5-carboxylic acid trifluoroacetate]", "IC50": 27.2}
{"smiles": "O=C1NCCCn2nc(-c3ccnc(-n4cncn4)c3)cc21", "note": "[Example 135, 2-[2-(1H-1,2,4-triazol-1-yl)pyridin-4-yl]-5,6,7,8-tetrahydro-4H-pyrazolo[1,5-a][1,4]diazepin-4-one hydrochloride]", "IC50": 28.2}
{"smiles": "CCOC(=O)c1cc(-c2ccnc(-c3cccc([N+](=O)[O-])c3)c2)nn1CCCN", "note": "[Example 137, ethyl 1-(3-aminopropyl)-3-[2-(3-nitrophenyl)pyridin-4-yl]-1H-pyrazole-5-carboxylate dihydrochloride]", "IC50": 31.6}
{"smiles": "CN(C)c1cc(-c2cc3n(n2)CCNC3=O)ccn1", "note": "[Example 138, 2-[2-(dimethylamino)pyridin-4-yl]-6,7-dihydropyrazolo[1,5-a]pyrazin-4(5H)-one trifluoroacetate]", "IC50": 37.2}
{"smiles": "CCOC(=O)c1cc(-c2ccnc(-c3cnc4ccccc4c3)c2)nn1CCCN", "note": "[Example 139, ethyl 1-(3-aminopropyl)-3-(2-quinolin-3-ylpyridin-4-yl)-1H-pyrazole-5-carboxylate dihydrochloride]", "IC50": 38.6}
{"smiles": "O=C1NCCn2nc(-c3ccnc(Cl)c3)cc21", "note": "[Example 140, 2-(2-chloropyridin-4-yl)-6,7-dihydropyrazolo[1,5-a]pyrazin-4(5H)-one]", "IC50": 44.8}
{"smiles": "CCOC(=O)c1cc(-c2ccnc(-c3ccc(O)cc3)c2)nn1CCCN", "note": "[Example 141, ethyl 1-(3-aminopropyl)-3-[2-(4-hydroxyphenyl)pyridin-4-yl]-1H-pyrazole-5-carboxylate hydrochloride]", "IC50": 47.5}
{"smiles": "Cc1cnn(-c2cc(-c3cc4n(n3)CCCNC4=O)ccn2)c1", "note": "[Example 142, 2-[2-(4-methyl-1H-pyrazol-1-yl)pyridin-4-yl]-5,6,7,8-tetrahydro-4H-pyrazolo[1,5-a][1,4]diazepin-4-one trifluoroacetate]", "IC50": 53.4}
{"smiles": "CCOC(=O)c1cc(-c2ccncc2)nn1CCCN", "note": "[Example 143, ethyl 1-(3-aminopropyl)-3-pyridin-4-yl-1H-pyrazole-5-carboxylate hydrochloride]", "IC50": 60.8}
{"smiles": "O=C1NCCn2nc(-c3ccnc(-c4ccc(Cl)c(Cl)c4)c3)cc21", "note": "[Example 144, 2-[2-(3,4-dichlorophenyl)pyridin-4-yl]-6,7-dihydropyrazolo[1,5-a]pyrazin-4(5H)-one trifluoroacetate]", "IC50": 65.5}
{"smiles": "O=C1NCCCn2nc(-c3ccnc(Cl)c3)cc21", "note": "[Example 145, 2-(2-chloropyridin-4-yl)-5,6,7,8-tetrahydro-4H-pyrazolo[1,5-a][1,4]diazepin-4-one]", "IC50": 80.4}
{"smiles": "O=C1NCCn2nc(-c3ccnc(-c4ccc(F)c(F)c4)c3)cc21", "note": "[Example 146, 2-[2-(3,4-difluorophenyl)pyridin-4-yl]-6,7-dihydropyrazolo[1,5-a]pyrazin-4(5H)-one trifluoroacetate]", "IC50": 88.9}
{"smiles": "O=C1NCCCn2nc(-c3ccc(O)cc3)cc21", "note": "[Example 147, 2-(4-hydroxyphenyl)-5,6,7,8-tetrahydro-4H-pyrazolo[1,5-a][1,4]diazepin-4-one]", "IC50": 118}
{"smiles": "O=C1NCCCn2nc(-c3ccnc(-c4ccc(OC(F)(F)F)cc4)c3)cc21", "note": "[Example 148, 2-{2-[4-(trifluoromethoxy)phenyl]pyridin-4-yl}-5,6,7,8-tetrahydro-4H-pyrazolo[1,5-a][1,4]diazepin-4-one]", "IC50": 124}
{"smiles": "O=C1NCCn2nc(-c3ccnc(-c4ccc(OC(F)(F)F)cc4)c3)cc21", "note": "[Example 149, 2-{2-[4-(trifluoromethoxy)phenyl]pyridin-4-yl}-6,7-dihydropyrazolo[1,5-a]pyrazin-4(5H)-one trifluoroacetate]", "IC50": 131}
{"smiles": "NCCCn1nc(-c2cccc(O)c2)cc1C(=O)O", "note": "[Example 150, 1-(3-aminopropyl)-3-(3-hydroxyphenyl)-1H-pyrazole-5-carboxylic acid trifluoroacetate]", "IC50": 153}
